Measurements published in publication PMC10447267, “Assessment of the potential of the MET inhibitor tepotinib to affect the pharmacokinetics of CYP3A4 and P-gp substrates” (Investigational New Drugs, 2023).
Like-named read-outs stand apart in the source and are kept apart here.

What was measured:
[1] = Safety and tolerability in the two clinical studies; assay type: in vivo, human; settings: healthy participants; tepotinib 500 mg once daily, both studies
Protocol: Safety and tolerability were also assessed throughout each study.

CYP1A1/2 = CYP1A1/2 activity induction in primary human hepatocyte cultures; assay type: in vitro ADME; settings: enzyme activity quantification
Protocol: In vitro studies in primary human hepatocyte cultures were conducted to assess the potential of tepotinib to induce human CYP1A1/2, 2B6 and 3A4/5 activity, the latter based on testosterone 6β-hydroxylation reactions (Online Resource 2). […] The studies included positive (rifampin) and vehicle (DMSO) controls. A negative control (flumazenil) was also included in the mRNA studies. The study designs, test systems and selection of prototypical inducers used in these studies were consistent with PhRMA, FDA and EMA guidelines.

CYP2C8 = target: T1, CYP2C8 (Homo sapiens, UniProt P10632); experiment: CYP2C8 inhibition in pooled human liver microsomes; assay type: in vitro ADME; settings: Amodiaquine N-dealkylation
T1 sequence (P10632 1-490): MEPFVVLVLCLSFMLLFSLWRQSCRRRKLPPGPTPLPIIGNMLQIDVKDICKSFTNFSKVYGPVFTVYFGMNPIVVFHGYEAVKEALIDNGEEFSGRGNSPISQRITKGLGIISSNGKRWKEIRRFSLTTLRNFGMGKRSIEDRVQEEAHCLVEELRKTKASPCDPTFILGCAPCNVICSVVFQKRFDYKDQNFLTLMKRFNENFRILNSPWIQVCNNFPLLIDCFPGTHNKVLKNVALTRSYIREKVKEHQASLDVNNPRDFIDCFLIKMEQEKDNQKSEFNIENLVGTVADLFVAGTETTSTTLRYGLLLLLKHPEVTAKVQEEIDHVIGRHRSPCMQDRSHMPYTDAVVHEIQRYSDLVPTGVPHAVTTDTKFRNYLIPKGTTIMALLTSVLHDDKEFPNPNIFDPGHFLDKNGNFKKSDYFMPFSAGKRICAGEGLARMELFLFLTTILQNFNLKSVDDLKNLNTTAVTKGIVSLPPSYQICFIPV
Protocol: The potential of tepotinib and MSC2571109A to inhibit CYP450 enzymes CYP1A2, 2A6, 2B6, 2C8, 2C9, 2C19, 2D6, 2E1, and 3A4/5 in vitro was evaluated using CYP-catalyzed reactions in pooled mixed-gender human liver microsomes using specific substrates and liquid chromatography/tandem mass spectrometry (LC–MS/MS) readouts. […] Testosterone 6β-hydroxylation was assessed in the MSC2571109A study. Assessments of mechanism-based inhibition of the above listed CYP450 enzymes were conducted after pre-incubation of the microsomes with tepotinib or MSC2571109A. A brief summary of the incubation methods, including details of substrates used for the other CYP enzymes (which are not pertinent to this article) are presented in Online Resource 1. The LC–MS/MS-based methods used were consistent with those previously described in the literature.

With `CN1CCC(COc2cnc(-c3cccc(Cn4nc(-c5cccc(C#N)c5)ccc4=O)c3)nc2)CC1` [tepotinib] the “Safety and tolerability (in words)” value [1] was “safe and well tolerated”, the “Induction of CYP1A1/2 activity” value (CYP1A1/2) was “less than 40 % of positive control” and the “Potential for time-dependent inhibition” value (CYP2C8) was “Little or No”. The IC50 (CYP2C8; 30-min preincubation, read-out: Time-dependent inhibition IC50) was 13 µM, the Type of inhibition (CYP2C8; direct inhibition) was “Mixed” and the inhibition at 49.5 µM (CYP2C8; both sexes, human, pooled human liver microsomes, probe amodiaquine, zero-minute preincubation, 49.5 µM, read-out: Direct inhibition, maximum inhibition at 49.5 µM) was 86%. It also gave a Ki (CYP2C8; human liver microsomes, read-out: Direct inhibition Ki) of 11 µM and an IC50 (CYP2C8; human liver microsomes, zero-minute preincubation, read-out: Direct inhibition IC50) of 16 µM.
